Test: xn = mol fraction of the nth substance listed

CCCCC(CC)COP(=O)(O)OCC(CC)CCCC (stereo not drawn) + CCCCO
303.15 K, 101 kPa
Settings	viscosity [mPa·s]
x1 = 0.0419	2.97
x1 = 0.0842	3.693
x1 = 0.1206	4.321
x1 = 0.2162	6.156
x1 = 0.3122	8.132
x1 = 0.4528	11.18
x1 = 0.5519	12.85
x1 = 0.6567	14.57
x1 = 0.761	16.12
x1 = 0.8628	17.52
x1 = 0.9345	18.4

C[N+](=O)[O-] + CCCCO
viscosity [mPa·s], 101 kPa
Settings	298.15 K	303.15 K	308.15 K	313.15 K	318.15 K	323.15 K
x1 = 0.1	–	1.815	1.607	1.438	1.283	1.156
x1 = 0.1589	1.93	–	–	–	–	–
x1 = 0.2	–	1.448	1.305	1.172	1.067	0.968
x1 = 0.299	1.499	–	–	–	–	–
x1 = 0.2999	–	1.218	1.107	0.996	0.906	0.828
x1 = 0.4	–	1.052	0.955	0.868	0.8	0.73
x1 = 0.4222	1.172	–	–	–	–	–
x1 = 0.5016	–	0.918	0.834	0.762	0.7	0.646
x1 = 0.5319	0.9681	–	–	–	–	–
x1 = 0.6017	–	0.802	0.73	0.672	0.622	0.578
x1 = 0.6302	0.8288	–	–	–	–	–
x1 = 0.6991	–	0.706	0.654	0.605	0.565	0.527
x1 = 0.7188	0.7435	–	–	–	–	–
x1 = 0.7993	0.6894	–	–	–	–	–
x1 = 0.8059	–	0.624	0.583	0.549	0.518	0.488
x1 = 0.8718	0.6557	–	–	–	–	–
x1 = 0.903	–	0.586	0.553	0.524	0.499	0.474
x1 = 0.9387	0.6378	–	–	–	–	–

O=Cc1ccco1 + CCCC[P+](C)(CCCC)CCCC.COS(=O)(=O)[O-]
viscosity [mPa·s], 100 kPa
Settings	293.15 K	298.15 K	303.15 K	308.15 K	313.15 K	318.15 K	323.15 K
x2 = 0.062	2.53	–	–	–	–	–	–
x2 = 0.1	8.96	3.49	3.13	2.99	2.64	2.46	–
x2 = 0.142	–	–	4.13	3.99	3.64	3.46	–
x2 = 0.191	41.29	–	–	5.55	5.56	4.32	4.01
x2 = 0.249	64.53	30.58	–	–	–	–	–
x2 = 0.317	–	46.54	24.83	–	8.79	–	6.01
x2 = 0.399	–	72.22	39.81	–	–	9.92	–
x2 = 0.499	–	–	–	33.52	–	–	–
x2 = 0.624	270.6	–	–	58.28	–	32.22	26.66
x2 = 0.732	396.3	265.6	–	133.5	–	81.46	73.46
x2 = 0.823	501.6	350.8	255.5	–	–	116.5	99.45
x2 = 0.863	555	392.6	287.1	–	–	–	–
x2 = 0.91	614.7	435.6	319.2	–	–	–	–
x2 = 0.951	664.4	475.8	351.2	265.8	–	158.5	–

CCCCC(CC)COP(=O)(O)OCC(CC)CCCC (stereo not drawn) + CCCO
303.15 K, 101 kPa
Settings	viscosity [mPa·s]
x1 = 0.0388	2.397
x1 = 0.0845	3.204
x1 = 0.1765	4.994
x1 = 0.2522	6.571
x1 = 0.3449	8.647
x1 = 0.4687	11.29
x1 = 0.6123	13.8
x1 = 0.7274	15.62
x1 = 0.8109	16.82
x1 = 0.9261	18.45

CCCCOC(=O)C(C)O (stereo not drawn) + CCCO
101 kPa, x1 = 0.8998
Settings	viscosity [mPa·s]
303.15 K	2.685
313.15 K	2.075

C[N+](=O)[O-] + CCCO
viscosity [mPa·s]
Settings	293.15 K	298.15 K	303.15 K	313.15 K
101 kPa, x1 = 0.1338	–	1.55	–	–
101 kPa, x1 = 0.2584	–	1.24	–	–
101 kPa, x1 = 0.3737	–	1.011	–	–
101 kPa, x1 = 0.4815	–	0.8394	–	–
101 kPa, x1 = 0.5819	–	0.7389	–	–
101 kPa, x1 = 0.6764	–	0.6772	–	–
101 kPa, x1 = 0.7649	–	0.6555	–	–
101 kPa, x1 = 0.8479	–	0.6441	–	–
101 kPa, x1 = 0.9262	–	0.6388	–	–
101.33 kPa, x2 = 0.0501	0.636	–	0.565	0.508
101.33 kPa, x2 = 0.1001	0.633	–	0.56	0.501
101.33 kPa, x2 = 0.1501	0.64	–	0.563	0.502
101.33 kPa, x2 = 0.2	0.656	–	0.574	0.508
101.33 kPa, x2 = 0.25	0.681	–	0.591	0.519
101.33 kPa, x2 = 0.3001	0.713	–	0.612	0.534
101.33 kPa, x2 = 0.3501	0.753	–	0.639	0.553
101.33 kPa, x2 = 0.4001	0.795	–	0.67	0.576
101.33 kPa, x2 = 0.45	0.843	–	0.704	0.6
101.33 kPa, x2 = 0.5	0.892	–	0.74	0.629
101.33 kPa, x2 = 0.5501	0.949	–	0.785	0.661
101.33 kPa, x2 = 0.6001	1.01	–	0.832	0.697
101.33 kPa, x2 = 0.65	1.081	–	0.886	0.739
101.33 kPa, x2 = 0.7	1.162	–	0.95	0.789
101.33 kPa, x2 = 0.75	1.26	–	1.023	0.845
101.33 kPa, x2 = 0.8	1.375	–	1.112	0.912
101.33 kPa, x2 = 0.85	1.519	–	1.218	0.993
101.33 kPa, x2 = 0.9	1.693	–	1.349	1.094
101.33 kPa, x2 = 0.95	1.911	–	1.51	1.214

O=S(=O)([N-]S(=O)(=O)C(F)(F)F)C(F)(F)F.On1cc[n+](O)c1 + CCCO
100 kPa
Settings	viscosity [mPa·s]
293.15 K, x1 = 0.3992	31.05
293.15 K, x1 = 0.5999	65.75
303.15 K, x1 = 0.7996	77.95
313.15 K, x1 = 0.4985	20.85

CC(=O)c1ccc(C)cc1 + CCNc1ccccc1
303.15 K, 100 kPa
Settings	viscosity [mPa·s]
x2 = 0.0838	1.587
x2 = 0.1427	1.592
x2 = 0.2179	1.601
x2 = 0.2904	1.608
x2 = 0.3608	1.616
x2 = 0.4284	1.625
x2 = 0.4942	1.635
x2 = 0.5577	1.645
x2 = 0.6194	1.656
x2 = 0.6889	1.67
x2 = 0.7467	1.683
x2 = 0.8128	1.697
x2 = 0.9072	1.718

CCCCC(CC)COP(=O)(O)OCC(CC)CCCC (stereo not drawn) + CCO
303.15 K, 101 kPa
Settings	viscosity [mPa·s]
x1 = 0.0484	1.909
x1 = 0.086	2.633
x1 = 0.1497	3.874
x1 = 0.246	5.98
x1 = 0.3456	8.285
x1 = 0.4132	9.819
x1 = 0.5228	12.07
x1 = 0.6182	13.82
x1 = 0.7125	15.38
x1 = 0.8312	17.13
x1 = 0.9224	18.43

C[N+](=O)[O-] + CCO
viscosity [mPa·s]
Settings	293.15 K	298.15 K	303.15 K	313.15 K
101 kPa, x1 = 0.1074	–	0.9963	–	–
101 kPa, x1 = 0.2135	–	0.9148	–	–
101 kPa, x1 = 0.3174	–	0.84	–	–
101 kPa, x1 = 0.4199	–	0.777	–	–
101 kPa, x1 = 0.5202	–	0.7236	–	–
101 kPa, x1 = 0.6192	–	0.6847	–	–
101 kPa, x1 = 0.7167	–	0.6557	–	–
101 kPa, x1 = 0.8126	–	0.6418	–	–
101 kPa, x1 = 0.9071	–	0.637	–	–
101.33 kPa, x2 = 0.0501	0.625	–	0.553	0.501
101.33 kPa, x2 = 0.1001	0.609	–	0.538	0.486
101.33 kPa, x2 = 0.15	0.602	–	0.53	0.477
101.33 kPa, x2 = 0.2	0.601	–	0.527	0.472
101.33 kPa, x2 = 0.2501	0.604	–	0.527	0.471
101.33 kPa, x2 = 0.3001	0.612	–	0.531	0.472
101.33 kPa, x2 = 0.3502	0.622	–	0.538	0.476
101.33 kPa, x2 = 0.4008	0.636	–	0.547	0.482
101.33 kPa, x2 = 0.4501	0.653	–	0.561	0.491
101.33 kPa, x2 = 0.5001	0.672	–	0.577	0.502
101.33 kPa, x2 = 0.55	0.695	–	0.594	0.516
101.33 kPa, x2 = 0.6	0.72	–	0.612	0.531
101.33 kPa, x2 = 0.65	0.75	–	0.633	0.547
101.33 kPa, x2 = 0.7	0.785	–	0.665	0.569
101.33 kPa, x2 = 0.75	0.825	–	0.698	0.595
101.33 kPa, x2 = 0.8	0.872	–	0.732	0.625
101.33 kPa, x2 = 0.85	0.936	–	0.782	0.662
101.33 kPa, x2 = 0.9	1.006	–	0.835	0.705
101.33 kPa, x2 = 0.95	1.086	–	0.901	0.759

C[N+](=O)[O-] + CCOC(C)=O
298.15 K, 101 kPa
Settings	viscosity [mPa·s]
x1 = 0.1688	0.4555
x1 = 0.3141	0.4808
x1 = 0.4395	0.5046
x1 = 0.55	0.526
x1 = 0.6469	0.5465
x1 = 0.733	0.5651
x1 = 0.8102	0.5828
x1 = 0.8801	0.5995
x1 = 0.9429	0.6154

CC(=O)c1ccc(C)cc1 + CN(C)c1ccccc1
viscosity [mPa·s], 101 kPa
Settings	303.15 K	308.15 K
x2 = 0.0481	1.541	1.493
x2 = 0.0942	1.512	1.462
x2 = 0.1558	1.478	1.428
x2 = 0.2311	1.442	1.39
x2 = 0.2972	1.411	1.359
x2 = 0.3584	1.382	1.33
x2 = 0.4254	1.356	1.303
x2 = 0.4949	1.331	1.275
x2 = 0.5492	1.31	1.252
x2 = 0.5964	1.295	1.234
x2 = 0.6887	1.264	1.204
x2 = 0.7635	1.24	1.181
x2 = 0.8596	1.213	1.149
